# Assay: Solubility in water
# Assay type: physicochemical
# Experimental: ^13C-BFA has suitable properties for polarization by DNP in that it is soluble forming >5 M solutions in water and readily forms a glass upon flash freezing. A 5 M solution of ^13C-BFA in water was prepared with 15 mM OXO63 radical and polarized by DNP by irradiating at 90940 MHz. A buildup time constant of 830 s provided ˜5% polarization (5450-fold enhancement factor) after 45 minutes. The spectroscopic detection of H2O2 of the probe was accomplished by rapidly dissolving polarized samples of ^13C-BFA in 100 mM phosphate buffer at pH 7.8 to a final concentration of 5 mM, followed by reaction with various concentrations of hydrogen peroxide.
smiles,measurement,value
"O=C(c1ccccc1)[13C](=O)O [^13C-BFA, ^13C-benzoylformic acid]",solubility (solutions in water),> 5 M

# — patent US10245330B2, “Compositions and methods for imaging” (The Regents of the University of California, priority 2010, dated 2019)
